Assay [1] is described as follows: Inhibition of trypsin.
Assay [2] can be described thus: Inhibition of trypsin at 32 degC.
Assay [3] in a line: Inhibition of trypsin at 37 degC.
Assay [4] is described as follows: Inhibition of trypsin at 42 degC.
The nature of assay [5]: Inhibition of chymotrypsin.
The nature of assay [6]: Inhibition of trypsin by classical double reciprocal plot.
The nature of assay [7]: Inhibition of trypsin by Dixon plot.

The values that follow come from ChEMBL document CHEMBL1155065, “A serine protease inhibitor from hemolymph of green mussel, Perna viridis” (Bioorg Med Chem Lett, 2008).

Active and inactive are the calls of the source. The rule behind the calls is not given here.

For the compound `O=C(O)c1ccc(C(=O)O)c2c1c(C(=O)O)c1cccnc1[n+]2C(=O)O`, the IC50 in assay [1] was 102 µM. In addition, the Ki in assay [2] was determined as 102 µM; in assay [3], 97.1 µM; in assay [4], 94 µM; in assay [6] it was 105 µM; in assay [7] it was 97.1 µM. Moreover, the result in assay [5] was inactive.
